According to US4504462A, “Process for making a lyophilized product for use in skeletal imaging” (Mallinckrodt, Inc., priority 1982, dated 1985):

Assay: skeletal imaging with scintillation camera
Type: in vivo, adult human subject
Details: component substituted in the kit of Example 1 or Example II; compared with the original kit
Experimental: An imaging agent is prepared using this kit by adding about 5 ml of a pertechnetate-Tc99m physiological saline with an activity of about 75 mCi, from a commercial technetium source. The kit is agitated until the kit components are dissolved. About 1 ml of the agent is slowly injected, over a period of about 30 seconds, into an adult human subject weighing about 75 kg.
With `CC1CC(O)=C(O)C1=O` (stereo not drawn) [5-methyl reductic acid] the “results when substituted in the kit” value was “substantially similar results”.
In the case of `O=C1O[C@H]([C@@H](O)CBr)C(O)=C1O` [6-bromo-6-deoxyascorbic acid], the “results when substituted in the kit” value was “substantially similar results”.
For `O=C1O[C@H]([C@@H](O)CCl)C(O)=C1O` [6-chloro-6-deoxyascorbic acid], the “results when substituted in the kit” value was “substantially similar results”.
With `CC(O)(P(=O)(O)O)P(=O)(O)O` [EHDP, ethane-1-hydroxy-1,1-diphosphonic acid, reference compound] the “results when substituted in the kit” value was “substantially similar results”.
With `O=P(O)(O)C(O)P(=O)(O)O` [HMDP, methanehydroxydiphosphonic acid, reference compound] the “results when substituted in the kit” value was “substantially similar results”.
With `O=P(O)(O)CP(=O)(O)O` [MDP, methanediphosphonic acid, reference compound] the “results when substituted in the kit” value was “substantially similar results”.
For `O=C1O[C@H]([C@H](O)CO)C(O)=C1O` [erythorbic acid], the “results when substituted in the kit” value was “substantially similar results”.
In the case of `NCC(O)(P(=O)(O)O)P(=O)(O)O` [ethane-1-hydroxy-2-amino-1,1-diphosphonic acid, reference compound], the “results when substituted in the kit” value was “substantially similar results”.
For `CN(C)C(P(=O)(O)O)P(=O)(O)O` [methane-N,N-dimethylaminodiphosphonic acid, reference compound], the “results when substituted in the kit” value was “substantially similar results”.
With `CNC(P(=O)(O)O)P(=O)(O)O` [methane-N-methylaminodiphosphonic acid, reference compound] the “results when substituted in the kit” value was “substantially similar results”.
For `NC(P(=O)(O)O)P(=O)(O)O` [methaneaminodiphosphonic acid, reference compound], the “results when substituted in the kit” value was “substantially similar results”.
For `O=C1CCC(O)=C1O` [reductic acid], the “results when substituted in the kit” value was “substantially similar results”.
With `O=C1O[C@H]([C@@H](O)CO)C([O-])=C1O.[Na+]` [sodium ascorbate] the “results when substituted in the kit” value was “substantially similar results”.
In the case of `O=C1O[C@H]([C@@H](O)CBr)C([O-])=C1O.[Na+]` [sodium-6-bromo-6-deoxyascorbate], the “results when substituted in the kit” value was “substantially similar results”.
For `O=C1O[C@H]([C@@H](O)CCl)C([O-])=C1O.[Na+]` [sodium-6-chloro-6-deoxyascorbate], the “results when substituted in the kit” value was “substantially similar results”.
For `O=S(=O)([O-])[O-].[Sn+2]` [stannous sulfate], the “results when substituted in the kit” value was “substantially similar results”.
With `O=C([O-])[C@H](O)[C@@H](O)C(=O)[O-].[Sn+2]` [stannous tartrate] the “results when substituted in the kit” value was “substantially similar results”.

Same assay, conditions: in vivo
For stannous fluoride, the “results when substituted in the kit” value was “substantially similar results”.
